Data on 4 molecules can be found in US20080167571A1, “DETERMINATION OF TREATMENT RESULTS PRIOR TO TREATMENT OR AFTER FEW TREATMENT EVENTS” (priority 2006, published 2008).

Series [1] is described as follows: Neuropsychological and neurophysiological testing of AEDs, double-blind randomized two period crossover. In kind it is in vivo, healthy adult volunteers. From the text:
The purpose of the underlying study was to evaluate the neuropsychological and neurophysiological effects of the AED carbamazepine (CBZ), and the AED levitiracetam (LEV) in healthy subjects, employing a double-blind, two period crossover design (Meador et al., 2007). In accordance with the present invention, data at non-drug baseline sessions predicted which subjects would have the most negative effects of CBZ.
A total of 28 healthy adult volunteers without history of neurological or psychiatric diseases completed the protocol (17 women; 11 men; mean age=33 years, range=18-51). All subjects remained free of centrally active prescription medications throughout the study.
The study employed a double-blind, randomized, two period crossover design. Subjects were screened and tested at the non-drug baseline.
Subsequently, they were randomly assigned to receive either AED. Each AED was administered over eight weeks, which included a titration period and a one month maintenance period. Each AED treatment period was followed by a four day taper and a washout period for the remainder of the four weeks. Then, subjects were treated with the other AED for eight weeks followed by a final four week washout period.
CBZ was given at 200 mg/day for the first week, 200 mg/day bid for the 2nd week, then adjusted to midrange anticonvulsant blood levels (ABLs) at tid dosages. LEV was begun at 500 mg/day for two weeks, then increased to 500 mg bid for two weeks, then increased to 1000 mg bid.
Subjects underwent neuropsychological and neurophysiological testing on six occasions (i.e., two AED conditions and four non-drug conditions) over 25 weeks. Test sessions occurred at week one before drug administration, at week nine after four weeks of titration and maintenance on the first drug for four weeks, at week 21 after 4 weeks of wash out, 4 weeks of titration on drug 2 and 4 weeks maintenance on drug 2, and at week 25 after 4 weeks of washout.
Patient data was obtained in accordance with procedures set forth in U.S. Pat. Nos. 6,947,790; 6,434,419 and 5,295,491; in this embodiment EEG data was obtained simultaneously with the subject taking a test battery of attention demanding tasks, for example a set of psychometric tasks.
Data was obtained from a verbal episodic memory task consisting of a word presentation phase, during which subjects had to indicate whether each word contained 1 or 2 syllables, and a delayed recognition phase in which subjects had to indicate whether each word had been presented earlier. A working memory task was presented in between these two phases, and acted as a distracter task. During the first repetition of this sequence, the working memory task was a low-load 1-back task, and during the second repetition, the working memory task was a high-load 2-back task. A number of standard neuropsychological and subjective rating scales were also administered. Test sessions lasted about an hour.

The nature of series [2]: Symbol Digits Modality Test (SDMT) after taking CBZ. In kind it is in vivo, healthy adult volunteers. From the text:
The SDMT is a standard neuropsychological test of “executive function” and includes complex scanning, visual tracking, and agility components. These non-drug baseline values of task performance, EEG, and evoked potential variables that were most sensitive to the effects of CBZ were used as candidate independent predictor variables. Stepwise multiple linear regression analysis was used to identify which of these candidate independent predictor variables at baseline best predicted the change in the SDMT after taking CBZ.

A short description of series [3]: Post-drug EEG and subjective scale measures (LDA neurocognitive drug response score). In kind it is in vivo, healthy adult volunteers. As to conditions: post-drug vs non-drug baseline. From the text: Using the data and methods described in Example 1, we determined how a combination of post-drug EEG and the subject's subjective scale measures quantifies the response to carbamazepine. Accordingly, a stepwise linear discriminant analysis (LDA) was used to generate a neurocognitive drug response score for each subject, reflecting the magnitude of neurocognitive response to the drug as compared with the non-drug baseline. The sensitivity and specificity in detecting the effect of the drug were both 100%. Three variables were used in the LDA, of which two were EEG and one was a subjective scale measure. The EEG variables were occipito-parietal 2-10 Hz EEG power in all tasks (relative weight 0.6) which increased consequent to CBZ, peak alpha frequency in all tasks (relative weight 0.3) which decreased consequent to CBZ, and self-reported fatigue rating on the Profile of Mood Scale (POMS, Jacobson et al., 1978) (relative weight 0.3) which increased consequent to CBZ.

The nature of series [4]: EEG with 1-back working memory task during methylphenidate dose titration in pediatric ADHD. In kind it is in vivo, patients diagnosed with ADHD. The procedure: Fourteen patients diagnosed with ADHD and clinically classified by a physician specialist in ADHD as MPH-responders (patients who would benefit from taking MPH) completed the protocol (11 males, 3 females; age range 8-18, mean 11.3, standard deviation 3.1). All patients weighed more than 25 kg.
Patients received one week each of placebo (0 mg), 5 mg, 10 mg, 15 mg, and 20 mg daily doses of MPH for a total of five weeks, according to a fully counterbalanced, placebo-controlled, double-blind design. In this example EEG data was obtained concurrent with selected attention demanding tasks. […] Accordingly, an EEG computer-based examination was obtained simultaneously with the subject taking a test battery of attention demanding tasks, for example a set of psychometric tasks. Such data was obtained once a week, 1-3 hours post-ingestion of the prescribed dose for that week. Examinations were administered approximately the same time of day and on the same day of the week during the dose titration period. The protocol used in this study included a low-load simple reaction time task (SRT) task and a higher-load 1-back working memory (WM) task in sessions lasting about half an hour.
Analysis focused on the 1-back working memory task whose performance and EEG signals were most affected by MPH A divergence-based multivariate feature selection and pattern classification algorithm (for convenience called the neuroworkload meter—Gevins and Smith, 2003; Smith, Gevins, et al, 2001) was employed to choose and weight an optimal subset of features to characterize the MPH response.
A set of candidate 1-back WM performance and attention-sensitive EEG features most affected by varying MPH doses was selected based on the prior statistical analyses of the average of the MPH doses followed by visual inspection of the grand averaged EEG power spectra and evoked potential data. Feature subsets were limited to a maximum of four variables because of the small number of subjects in the experiment. […]

For series [5] the following is noted: in vivo; cited from earlier work.

For the molecule `NC(=O)N1c2ccccc2C=Cc2ccccc21` [CBZ, carbamazepine], the “variables worse compared to the non-drug average” value in series [1] (CBZ 36 of 55, LEV 4 of 33) was found to be 65%. The “low frequency (<10 Hz) EEG power” value in series [1] (after one month maintenance) is “increase”. In addition, the “subjects with a decline in SDMT score of at least 15%” value in series [2] (28 subjects) is given as “Six of the 28 subjects”. Also, in series [2] (actual, across the 28 subjects, p<0.0003), the “average decline in SDMT” value is listed as 6.7%. Further, in series [3], the “occipito-parietal 2-10 Hz EEG power in all tasks” value was “increased”, the “peak alpha frequency in all tasks” value is recorded as “decreased” and the “self-reported fatigue rating on the Profile of Mood Scale (POMS)” value was “increased”.
As to `CC[C@@H](C(N)=O)N1CCCC1=O` [LEV, levetiracetam], in series [1] (in vivo), the “untoward neuropsychological and neurophysiological effects” value is “fewer untoward neuropsychological and neurophysiological effects than did CBZ”; the “variables with significant differences between the AEDs, all in favor of LEV” value worked out at 42%; the “variables worse compared to the non-drug average” value turned out to be 12%.
As to `COC(=O)C(c1ccccc1)C1CCCCN1` (stereo not drawn) [MPH, methylphenidate], in series [4] (0, 5, 10, 15, 20 mg daily, one week each), the “dose-response relationship across patients” value is on record as “did not reveal any systematic dose-response relationship”. Also, the “effect size (Cohen's d) of four-variable equation score” value in series [4] (20 mg vs placebo) came out at 2.12. For the same molecule, the “effect size (Cohen's d), dose with the highest score vs placebo” value in series [4] (two-dose test analysis) is on record as 3.43.
On to `CC1(C)O[C@@H]2[C@@H](CO[C@@]3(COS(N)(=O)=O)OC(C)(C)O[C@@H]23)O1` [topiramate], for which, in series [5], the “2-6 Hz EEG power” value is listed as “increased” and the “working memory task performance” value is “adversely affected”.
